Measured values: patent US20090181986A1, “SUBSTITUTED HETEROCYCLIC COMPOUNDS” (priority 2007, published 2009)

Molecular target: hERG potassium channel (Homo sapiens, UniProt Q12809)
Assay: hERG screening assay (PatchXpress patch clamp, CHO cells)
Protocol: Compounds were screened to test their activity in blocking the hERG potassium channel. The hERG channel is heterologously expressed in a CHO (Chinese Hamster Ovary) cell line. Cells are maintained with standard tissue culture procedures and stable channel expression is maintained with 500 μg/ml G418 in the culture medium. Cells are harvested for testing on the PatchXpress automated patch clamp with Acctumax (Innovative Cell Technologies, San Diego, Calif.) to isolate single cells.
The following solutions are used for electrophysiological recordings. The external solution contains: 2 mM CaCl2; 2 mM MgCl2; 4 mM KCl; 150 mM NaCl; 10 mM Glucose; 10 mM HEPES (pH 7.4 with 1M NaOH, osmolarity).
hERG channels are activated when the voltage is stepped to +20 mV from the −80 mV holding potential (see FIG. 3). During a 5 second step at +20 mV, the channels activate and then largely inactivate, so the currents are relatively small. Upon returning to −50 mV from +20 mV, hERG currents transiently become much larger as inactivation is rapidly removed and then the channel closes. The first step to −50 mV for 300 ms is used as a baseline for measuring the peak amplitude during the step to −50 mV after channel activation. The peak current at −50 mV is measured both under control conditions and after addition of compound.
All compounds are prepared as 10 mM DMSO stocks in glass vials. Stock solutions are mixed by vigorous vortexing and sonication for about 2 minutes at room temperature. For testing, compounds are diluted in glass vials using an intermediate dilution step in pure DMSO and then further diluted to working concentrations in external solution. Dilutions are prepared no longer than 20 minutes before use.
After achieving the whole-cell configuration, cells are monitored for 90 seconds to assess stability and washed with external solution for 66 seconds. The voltage protocol described above is then applied to the cells every 12 seconds and throughout the whole procedure. Only cells with stable recording parameters and meeting specified health criteria are allowed to enter the compound addition procedure.
External solution containing 0.1% DMSO (vehicle) is applied to the cells first to establish the control peak current amplitude. After allowing the current to stabilize for 3 to 5 minutes, 1 μM and then 10 μM test compounds are applied. Each compound concentration is added 4 times and cells are kept in test solution until the effect of the compound reaches steady state or for a maximum of 12 minutes. […] Washout in the external solution compartment is performed until the recovery of the current reaches steady state. Data are analyzed using DataXpress, Clampfit (Molecular Devices, Inc., Sunnyvale) and Origin 7 (Originlab Corp.)

Sequence of hERG potassium channel (Q12809 whole entry): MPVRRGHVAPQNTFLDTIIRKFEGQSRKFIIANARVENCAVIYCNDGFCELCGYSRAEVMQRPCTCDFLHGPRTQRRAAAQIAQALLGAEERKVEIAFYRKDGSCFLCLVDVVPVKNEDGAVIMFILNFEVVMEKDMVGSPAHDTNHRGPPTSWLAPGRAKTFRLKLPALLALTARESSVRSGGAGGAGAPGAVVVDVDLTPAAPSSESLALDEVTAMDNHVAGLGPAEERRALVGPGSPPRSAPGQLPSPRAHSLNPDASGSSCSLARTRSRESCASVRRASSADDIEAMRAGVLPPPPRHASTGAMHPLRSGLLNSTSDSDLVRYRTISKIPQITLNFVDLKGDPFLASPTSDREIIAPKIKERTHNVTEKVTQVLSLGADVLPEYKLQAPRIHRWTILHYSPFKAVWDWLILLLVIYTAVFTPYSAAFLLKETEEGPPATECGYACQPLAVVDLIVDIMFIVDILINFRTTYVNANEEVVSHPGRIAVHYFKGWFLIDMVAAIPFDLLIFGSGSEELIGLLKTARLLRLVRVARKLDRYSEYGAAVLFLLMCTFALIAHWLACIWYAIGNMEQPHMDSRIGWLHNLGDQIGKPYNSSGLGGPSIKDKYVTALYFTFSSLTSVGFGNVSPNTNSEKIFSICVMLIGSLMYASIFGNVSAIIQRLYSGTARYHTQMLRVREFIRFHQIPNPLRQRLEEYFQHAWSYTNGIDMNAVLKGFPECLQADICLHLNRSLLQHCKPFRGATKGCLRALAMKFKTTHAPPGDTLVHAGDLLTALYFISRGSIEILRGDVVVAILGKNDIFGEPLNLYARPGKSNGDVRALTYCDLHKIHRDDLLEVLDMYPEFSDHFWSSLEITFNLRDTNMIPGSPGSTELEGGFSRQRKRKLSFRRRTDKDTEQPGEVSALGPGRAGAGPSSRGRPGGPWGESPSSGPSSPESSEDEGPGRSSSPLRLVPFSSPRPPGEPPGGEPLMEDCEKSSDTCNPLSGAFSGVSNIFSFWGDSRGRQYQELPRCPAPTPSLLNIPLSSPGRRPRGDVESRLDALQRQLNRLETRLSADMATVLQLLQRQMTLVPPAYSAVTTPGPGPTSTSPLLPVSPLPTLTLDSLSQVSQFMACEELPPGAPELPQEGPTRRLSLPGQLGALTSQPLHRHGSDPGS

## CC1=C(C(=O)OCc2ccccc2)C(c2ccc3ccccc3c2)C2=C(CCCC2=O)N1 (centres unmarked) [PT-320, benzyl 2-methyl-4-(naphthalen-2-yl)-5-oxo-1,4,5,6,7,8-hexahydroquinoline-3-carboxylate]
  hERG Patch Clamp hERG % blk (1 μM test cmpd): 10%
  hERG Patch Clamp hERG % blk (10 μM test cmpd): 10%

## CC1=C(C(=O)OCc2ccccc2)C(c2ccc3ccccc3c2)c2c(C)n[nH]c2N1 (centres unmarked) [PT-325, benzyl 3,6-dimethyl-4-(naphthalen-2-yl)-4,7-dihydro-1H-pyrazolo[3,4-b]pyridine-5-carboxylate]
  hERG Patch Clamp hERG % blk (1 μM test cmpd): 10%
  hERG Patch Clamp hERG % blk (10 μM test cmpd): 36%

## CC1=C(C(=O)OCc2ccccc2)C(c2ccccc2N2CCN(S(C)(=O)=O)CC2)n2nnnc2N1 (centres unmarked) [PT-339, benzyl 5-methyl-7-(2-(4-(methylsulfonyl)piperazin-1-yl)phenyl)-4,7-dihydrotetrazolo[1,5-a]pyrimidine-6-carboxylate]
  hERG Patch Clamp hERG % blk (1 μM test cmpd): 11.5%
  hERG Patch Clamp hERG % blk (10 μM test cmpd): 43.5%

## CC1=C(C(=O)OCc2ccccc2)C(c2ccccc2N2CCN(C)CC2)n2nnnc2N1 (centres unmarked) [PT-340, benzyl 5-methyl-7-(2-(4-methylpiperazin-1-yl)phenyl)-4,7-dihydrotetrazolo[1,5-a]pyrimidine-6-carboxylate]
  hERG Patch Clamp hERG % blk (1 μM test cmpd): 57%
  hERG Patch Clamp hERG % blk (10 μM test cmpd): 93.5%

## CC1=C(C(=O)OCc2ccccc2)C(c2ccccc2N2CCCCC2)n2nnnc2N1 (centres unmarked) [PT-342, benzyl 5-methyl-7-(2-(piperidin-1-yl)phenyl)-4,7-dihydrotetrazolo[1,5-a]pyrimidine-6-carboxylate]
  hERG Patch Clamp hERG % blk (1 μM test cmpd): 10%
  hERG Patch Clamp hERG % blk (10 μM test cmpd): 47.5%

## CC1=C(C(=O)OCc2ccccc2)C(c2ccccc2-c2cccc(NS(C)(=O)=O)c2)n2nnnc2N1 (centres unmarked) [PT-348, benzyl 5-methyl-7-(3′-(methylsulfonamido)biphenyl-2-yl)-4,7-dihydrotetrazolo[1,5-a]pyrimidine-6-carboxylate]
  hERG Patch Clamp hERG % blk (1 μM test cmpd): 10%
  hERG Patch Clamp hERG % blk (10 μM test cmpd): 38.5%

## CC1=C(C(=O)OCc2ccccc2)C(c2nccs2)n2nccc2N1 (centres unmarked) [PT-363, benzyl 5-methyl-7-(thiazol-2-yl)-4,7-dihydropyrazolo[1,5-a]pyrimidine-6-carboxylate]
  hERG Patch Clamp hERG % blk (1 μM test cmpd): 10%
  hERG Patch Clamp hERG % blk (10 μM test cmpd): 19.5%

## CC1=C(C(=O)OCc2ccccc2)C(c2nccs2)n2nnnc2N1 (centres unmarked) [PT-364, benzyl 5-methyl-7-(thiazol-2-yl)-4,7-dihydrotetrazolo[1,5-a]pyrimidine-6-carboxylate]
  hERG Patch Clamp hERG % blk (1 μM test cmpd): 10%
  hERG Patch Clamp hERG % blk (10 μM test cmpd): 17.5%

## CC1=C(C(=O)OCc2ccccc2)C(c2nccs2)c2cn[nH]c2N1 (centres unmarked) [PT-369, benzyl 6-methyl-4-(thiazol-2-yl)-4,7-dihydro-1H-pyrazolo[3,4-b]pyridine-5-carboxylate]
  hERG Patch Clamp hERG % blk (1 μM test cmpd): 10%
  hERG Patch Clamp hERG % blk (10 μM test cmpd): 25%

## CCS(=O)(=O)N1CCN(c2cccc(OC)c2C2C(C(=O)OCc3ccccc3)=C(C)Nc3nnnn32)CC1 (centres unmarked) [PT-378, benzyl 7-(2-(4-(ethylsulfonyl)piperazin-1-yl)-6-methoxyphenyl)-5-methyl-4,7-dihydrotetrazolo[1,5-a]pyrimidine-6-carboxylate]
  hERG Patch Clamp hERG % blk (1 μM test cmpd): 10%
  hERG Patch Clamp hERG % blk (10 μM test cmpd): 41.5%

## CC1=C(C(=O)OCc2ccccc2)C(c2c(Br)sc3ccccc23)n2nnnc2N1 (centres unmarked) [PT-386, benzyl 7-(2-bromobenzo[b]thiophen-3-yl)-5-methyl-4,7-dihydrotetrazolo[1,5-a]pyrimidine-6-carboxylate]
  hERG Patch Clamp hERG % blk (1 μM test cmpd): 10%
  hERG Patch Clamp hERG % blk (10 μM test cmpd): 16.5%

## CC1=C(C(=O)OCc2ccccc2)C(c2occc2-c2ccc(F)cc2)n2nnnc2N1 (centres unmarked) [PT-396, benzyl 7-(3-(4-fluorophenyl)furan-2-yl)-5-methyl-4,7-dihydrotetrazolo[1,5-a]pyrimidine-6-carboxylate]
  hERG Patch Clamp hERG % blk (1 μM test cmpd): 10%
  hERG Patch Clamp hERG % blk (10 μM test cmpd): 32%

## CC1=C(C(=O)OCc2ccccc2)C(c2sccc2-c2ccc(F)cc2)n2nnnc2N1 (centres unmarked) [PT-397, benzyl 7-(3-(4-fluorophenyl)thiophen-2-yl)-5-methyl-4,7-dihydrotetrazolo[1,5-a]pyrimidine-6-carboxylate]
  hERG Patch Clamp hERG % blk (1 μM test cmpd): 10%
  hERG Patch Clamp hERG % blk (10 μM test cmpd): 25%

## CC(=O)c1ccc(-c2ccccc2C2C(C(=O)OCc3ccccc3)=C(C)Nc3nnnn32)cc1 (centres unmarked) [PT-415, benzyl 7-(4′-acetylbiphenyl-2-yl)-5-methyl-4,7-dihydrotetrazolo[1,5-a]pyrimidine-6-carboxylate]
  hERG Patch Clamp hERG % blk (1 μM test cmpd): 10.5%
  hERG Patch Clamp hERG % blk (10 μM test cmpd): 38.5%

## CCOC(=O)C1=C(C)Nc2[nH]ncc2C1c1ccc(OC)cc1OCc1ccccc1 (centres unmarked) [PT-445, ethyl 4-(2-(benzyloxy)-4-methoxyphenyl)-6-methyl-4,7-dihydro-1H-pyrazolo[3,4-b]pyridine-5-carboxylate]
  hERG Patch Clamp hERG % blk (1 μM test cmpd): 10.5%
  hERG Patch Clamp hERG % blk (10 μM test cmpd): 50%

## CCOC(=O)C1=C(C)Nc2[nH]ncc2C1c1ccccc1Br (centres unmarked) [PT-448, ethyl 4-(2-bromophenyl)-6-methyl-4,7-dihydro-1H-pyrazolo[3,4-b]pyridine-5-carboxylate]
  hERG Patch Clamp hERG % blk (1 μM test cmpd): 10%
  hERG Patch Clamp hERG % blk (10 μM test cmpd): 57.5%

## CCOC(=O)C1=C(C)Nc2nnnn2C1c1ccccc1-n1ccnc1C.Cl (centres unmarked) [PT-457, ethyl 5-methyl-7-(2-(2-methyl-1H-imidazol-1-yl)phenyl)-4,7-dihydrotetrazolo[1,5-a]pyrimidine-6-carboxylate hydrochloride]
  hERG Patch Clamp hERG % blk (1 μM test cmpd): 10%
  hERG Patch Clamp hERG % blk (10 μM test cmpd): 21%

## CCOC(=O)C1=C(C)Nc2nnnn2C1c1cccc(Oc2ccccc2)c1 (centres unmarked) [PT-464, ethyl 5-methyl-7-(3-phenoxyphenyl)-4,7-dihydrotetrazolo[1,5-a]pyrimidine-6-carboxylate]
  hERG Patch Clamp hERG % blk (1 μM test cmpd): 11%
  hERG Patch Clamp hERG % blk (10 μM test cmpd): 55%

## CCOC(=O)C1=C(C)Nc2nnnn2C1c1ccccc1-n1ccnc1.Cl (centres unmarked) [PT-476, ethyl 7-(2-(1H-imidazol-1-yl)phenyl)-5-methyl-4,7-dihydrotetrazolo[1,5-a]pyrimidine-6-carboxylate hydrochloride]
  hERG Patch Clamp hERG % blk (1 μM test cmpd): 17.5%
  hERG Patch Clamp hERG % blk (10 μM test cmpd): 23%

## CCOC(=O)C1=C(C)Nc2nnnn2C1c1ccccc1-n1cccn1.Cl (centres unmarked) [PT-477, ethyl 7-(2-(1H-pyrazol-1-yl)phenyl)-5-methyl-4,7-dihydrotetrazolo[1,5-a]pyrimidine-6-carboxylate hydrochloride]
  hERG Patch Clamp hERG % blk (1 μM test cmpd): 12%
  hERG Patch Clamp hERG % blk (10 μM test cmpd): 44%

## CCOC(=O)C1=C(C)Nc2nnnn2C1c1ccccc1-c1cccc(-c2nnn[nH]2)c1 (centres unmarked) [PT-493, ethyl 7-(3′-(1H-tetrazol-5-yl)biphenyl-2-yl)-5-methyl-4,7-dihydrotetrazolo[1,5-a]pyrimidine-6-carboxylate]
  hERG Patch Clamp hERG % blk (1 μM test cmpd): 10%
  hERG Patch Clamp hERG % blk (10 μM test cmpd): 10%

## COC(=O)C1=C(C)Nc2nnnn2C1c1cccc2ccccc12 (centres unmarked) [PT-512, methyl 5-methyl-7-(naphthalen-1-yl)-4,7-dihydrotetrazolo[1,5-a]pyrimidine-6-carboxylate]
  hERG Patch Clamp hERG % blk (1 μM test cmpd): 10.5%
  hERG Patch Clamp hERG % blk (10 μM test cmpd): 14%
